Data published in patent US20120122924A1, “NAMPT INHIBITORS” (ABBOTT LABORATORIES, priority 2010, published 2012).

Molecular target: recombinant, human, C-terminally-His tagged NAMPT (Homo sapiens, UniProt P43490)
Assay: Time-Resolved Fluorescence Resonance Energy Transfer (TR-FRET) binding assay of NAMPT
Conditions: 6.8 nM NAMPT, 200 nM probe (Oregon Green 488-conjugated APO866), 1 nM Tb-anti-His antibody, 2-3 hours
Method in brief: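 Competition binding with 6.8 nM His-tagged NAMPT, 1 nM Tb-anti-His antibody and 200 nM Oregon Green 488-APO866 probe in HEPES pH 7.5 buffer with MgCl2 and DTT, 2–3 h. Excitation 337 nm; 520/492 nm emission ratio used for IC50.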

Sequence of recombinant, human, C-terminally-His tagged NAMPT (P43490 whole entry): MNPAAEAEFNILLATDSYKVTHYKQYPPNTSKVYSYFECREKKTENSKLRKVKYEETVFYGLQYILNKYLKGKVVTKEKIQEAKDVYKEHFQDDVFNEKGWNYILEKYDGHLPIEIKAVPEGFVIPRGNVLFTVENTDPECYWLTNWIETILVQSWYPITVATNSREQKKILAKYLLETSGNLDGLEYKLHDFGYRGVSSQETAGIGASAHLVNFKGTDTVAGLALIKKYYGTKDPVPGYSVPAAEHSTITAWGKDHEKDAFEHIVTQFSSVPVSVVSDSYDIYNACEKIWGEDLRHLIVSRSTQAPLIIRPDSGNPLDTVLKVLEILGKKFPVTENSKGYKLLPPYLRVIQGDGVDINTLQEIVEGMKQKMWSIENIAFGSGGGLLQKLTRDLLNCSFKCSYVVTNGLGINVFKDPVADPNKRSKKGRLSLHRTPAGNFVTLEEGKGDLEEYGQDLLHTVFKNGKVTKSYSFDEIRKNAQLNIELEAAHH

Compound | IC50 [nM]
CCCCCCNC(=O)N1CCc2ccccc2C1 [Example 59, N-hexyl-3,4-dihydroisoquinoline-2(1H)-carboxamide] | 864
O=C(CCCc1ccccc1)Nc1ccc(NC(=O)N2CCc3ccccc3C2)cc1 [Example 32, N-{4-[(4-phenylbutanoyl)amino]phenyl}-3,4-dihydroisoquinoline-2(1H)-carboxamide] | 12
